Key:
[1] = Solubility in phosphate buffer pH 7.4
In short: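 3 mg of peptide treated with 100 μL portions of 200 mM phosphate buffer pH 7.4, sonicating/vortexing up to 1 min, with further buffer added until fully dissolved. Solubility then quantified by HPLC.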

C57BL/6J mice = experiment: Oral glucose tolerance test (OGTT); type: in vivo; details: 3 nmol/kg s.c., 24 hours before glucose loading
Method: An oral glucose tolerance test (OGTT) was carried out using C57BL/6J mice with a 50% dextrose solution dosed at 5 ml/kg. Testing concentrations of 0.1 nmol/kg, 0.3 nmmol/kg, 3 nmol/kg or 10 nmol/kg were selected depending on the peptide. Each peptide or a vehicle (control group) was subcutaneously administered 24 hours (unless shown otherwise) before glucose loading and the blood glucose was measured at 0, 15, 30, and 60 minutes after glucose dosing.
% inhibition=(1−(AUC cpd−AUC naïve/AUC veh−AUC naïve))×100.

[2] = pH 7.4, aqueous buffer, pH 7.4 Phosphate Buffer - Solubility, 200 mM Phosphate buffer pH 7.4
[3] = pH 7.4, solubility in phosphate buffer at pH 7.4, 200 mM phosphate buffer pH 7.4

| Compound | solubility [1, 2] [mg/mL] | solubility [1, 3] [mg/mL] | Oral Glucose Tolerance Test Percent decrease in blood glucose AUC (%) over 60 mins (C57BL/6J mice) | solubility ([1]; pH 7.4) [mg/mL] | solubility ([1]; pH 7.4, aqueous buffer) [mg/mL] |
| --- | --- | --- | --- | --- | --- |
| CC[C@H](C)[C@H](NC(=O)[C@H](Cc1ccccc1)NC(=O)[C@@H](NC(=O)CNC(=O)[C@H](CCC(=O)O)NC(=O)C(C)(C)NC(=O)[C@H](Cc1ccc(O)cc1)NC)[C@@H](C)O)C(=O)N[C@@H](CO)C(=O)N[C@@H](CC(=O)O)C(=O)N[C@@H](Cc1ccc(O)cc1)C(=O)N[C@@H](CO)C(=O)N[C@H](C(=O)NC(C)(C)C(=O)N[C@@H](CCCCNC(=O)CNC(=O)CNC(=O)CNC(=O)CNC(=O)CNC(=O)CCCCCCCCCCCCCCCCC(=O)O)C(=O)N[C@@H](CC(=O)O)C(=O)N[C@@H](CCCNC(=N)N)C(=O)NC(C)(C)C(=O)N[C@@H](C)C(=O)N[C@@H](CCC(N)=O)C(=O)NC(C)(C)C(=O)N[C@@H](CC(=O)O)C(=O)N[C@@H](Cc1ccccc1)C(=O)N[C@H](C(=O)N[C@@H](CC(N)=O)C(=O)N[C@@H](Cc1c[nH]c2ccccc12)C(=O)N[C@@H](CC(C)C)C(=O)N[C@@H](CC(C)C)C(=O)N[C@@H](C)C(=O)N[C@@H](CCC(N)=O)C(=O)N[C@@H](CO)C(=O)N1CCC[C@H]1C(=O)N[C@@H](CO)C(=O)N[C@@H](CO)C(=O)NCC(=O)N[C@@H](C)C(=O)N1CCC[C@H]1C(=O)N1CCC[C@H]1C(=O)N1CCC[C@H]1C(=O)N[C@@H](CO)C(=O)O)C(C)C)[C@@H](C)CC [Compound 47] | ≥ 30 | ≥ 15 | 48% (3 nmol/kg) | – | – |
| CC[C@H](C)[C@H](NC(=O)[C@H](CO)NC(=O)[C@H](Cc1ccc(O)cc1)NC(=O)[C@H](CC(=O)O)NC(=O)[C@H](CO)NC(=O)[C@@H](NC(=O)[C@H](Cc1ccccc1)NC(=O)[C@@H](NC(=O)CNC(=O)[C@H](CCC(=O)O)NC(=O)C(C)(C)NC(=O)[C@H](Cc1ccc(O)cc1)NC)[C@@H](C)O)[C@@H](C)CC)C(=O)N[C@@H](C)C(=O)N[C@@H](CC(C)C)C(=O)N[C@@H](CC(=O)O)C(=O)N[C@@H](CCCNC(=N)N)C(=O)N[C@@H](CCCCNC(=O)CNC(=O)CNC(=O)CNC(=O)CNC(=O)CNC(=O)CCCCCCCCCCCCCCCCC(=O)O)C(=O)N[C@@H](C)C(=O)N[C@@H](CCC(N)=O)C(=O)NC(C)(C)C(=O)N[C@@H](CC(=O)O)C(=O)N[C@@H](Cc1ccccc1)C(=O)N[C@H](C(=O)N[C@@H](CC(N)=O)C(=O)N[C@@H](Cc1c[nH]c2ccccc12)C(=O)N[C@@H](CC(C)C)C(=O)N[C@@H](CC(C)C)C(=O)N[C@@H](C)C(=O)N[C@@H](CCC(N)=O)C(=O)N[C@@H](CCCNC(=N)N)C(=O)N1CCC[C@H]1C(=O)N[C@@H](CO)C(=O)N[C@@H](CO)C(=O)NCC(=O)N[C@@H](C)C(=O)N1CCC[C@H]1C(=O)N1CCC[C@H]1C(=O)N1CCC[C@H]1C(=O)N[C@@H](CO)C(=O)O)C(C)C [Compound 51] | ≥ 30 | ≥ 15 | 50% (3 nmol/kg) | – | – |
| CC[C@H](C)[C@H](NC(=O)[C@H](Cc1ccccc1)NC(=O)[C@@H](NC(=O)CNC(=O)[C@H](CCC(=O)O)NC(=O)C(C)(C)NC(=O)[C@H](Cc1ccc(O)cc1)NC)[C@@H](C)O)C(=O)N[C@@H](CO)C(=O)N[C@@H](CC(=O)O)C(=O)N[C@@H](Cc1ccc(O)cc1)C(=O)N[C@@H](CO)C(=O)N[C@H](C(=O)NC(C)(C)C(=O)N[C@@H](CCCCNC(=O)CNC(=O)CNC(=O)CNC(=O)CNC(=O)CNC(=O)CCCCCCCCCCCCCCCCC(=O)O)C(=O)N[C@@H](CC(=O)O)C(=O)N[C@@H](CCCNC(=N)N)C(=O)NC(C)(C)C(=O)N[C@@H](C)C(=O)N[C@@H](CCC(N)=O)C(=O)NC(C)(C)C(=O)N[C@@H](CC(=O)O)C(=O)N[C@@H](Cc1ccccc1)C(=O)N[C@H](C(=O)N[C@@H](CC(N)=O)C(=O)N[C@@H](Cc1c[nH]c2ccccc12)C(=O)N[C@@H](CC(C)C)C(=O)N[C@@H](CC(C)C)C(=O)N[C@@H](C)C(=O)N[C@@H](CCC(N)=O)C(=O)N[C@@H](CCCNC(=N)N)C(=O)N1CCC[C@H]1C(=O)N[C@@H](CO)C(=O)N[C@@H](CO)C(=O)NCC(=O)N[C@@H](C)C(=O)N1CCC[C@H]1C(=O)N1CCC[C@H]1C(=O)N1CCC[C@H]1C(=O)N[C@@H](CO)C(=O)O)C(C)C)[C@@H](C)CC [Compound 54] | ≥ 30 | ≥ 15 | 43% (3 nmol/kg) | – | – |
| CC[C@H](C)[C@H](NC(=O)[C@H](CO)NC(=O)[C@H](Cc1ccc(O)cc1)NC(=O)[C@H](CC(=O)O)NC(=O)[C@H](CO)NC(=O)[C@@H](NC(=O)[C@H](Cc1ccccc1)NC(=O)[C@@H](NC(=O)CNC(=O)[C@H](CCC(=O)O)NC(=O)C(C)(C)NC(=O)[C@H](Cc1ccc(O)cc1)NC)[C@@H](C)O)[C@@H](C)CC)C(=O)N[C@@H](C)C(=O)N[C@@H](CCCCNC(=O)CNC(=O)CNC(=O)CNC(=O)CNC(=O)CNC(=O)CCCCCCCCCCCCCCCCC(=O)O)C(=O)N[C@@H](CC(=O)O)C(=O)N[C@@H](CCCNC(=N)N)C(=O)NC(C)(C)C(=O)N[C@@H](C)C(=O)N[C@@H](CCC(N)=O)C(=O)NC(C)(C)C(=O)N[C@@H](CC(=O)O)C(=O)N[C@@H](Cc1ccccc1)C(=O)N[C@H](C(=O)N[C@@H](CC(N)=O)C(=O)N[C@@H](Cc1c[nH]c2ccccc12)C(=O)N[C@@H](CC(C)C)C(=O)N[C@@H](CC(C)C)C(=O)N[C@@H](C)C(=O)N[C@@H](CCC(N)=O)C(=O)N[C@@H](CCCNC(=N)N)C(=O)NCC(=O)O)C(C)C [Compound 63] | – | – | 41% (3 nmol/kg) | ≥ 15 | – |
| CC[C@H](C)[C@H](NC(=O)[C@H](CO)NC(=O)[C@H](Cc1ccc(O)cc1)NC(=O)[C@H](CC(=O)O)NC(=O)[C@H](CO)NC(=O)[C@@H](NC(=O)[C@H](Cc1ccccc1)NC(=O)[C@@H](NC(=O)CNC(=O)[C@H](CCC(=O)O)NC(=O)C(C)(C)NC(=O)[C@H](Cc1ccc(O)cc1)NC)[C@@H](C)O)[C@@H](C)CC)C(=O)N[C@@H](C)C(=O)N[C@@H](CCCCNC(=O)CNC(=O)CNC(=O)CNC(=O)CNC(=O)CNC(=O)CCCCCCCCCCCCCCCCC(=O)O)C(=O)N[C@@H](CC(=O)O)C(=O)N[C@@H](CCCNC(=N)N)C(=O)NC(C)(C)C(=O)N[C@@H](C)C(=O)N[C@@H](CCC(N)=O)C(=O)NC(C)(C)C(=O)N[C@@H](CC(=O)O)C(=O)N[C@@H](Cc1ccccc1)C(=O)N[C@H](C(=O)N[C@@H](CC(N)=O)C(=O)N[C@@H](Cc1c[nH]c2ccccc12)C(=O)N[C@@H](CC(C)C)C(=O)N[C@@H](CC(C)C)C(=O)N[C@@H](C)C(=O)N[C@@H](CCC(N)=O)C(=O)N[C@@H](CCCNC(=N)N)C(=O)N1CCC[C@H]1C(=O)N[C@@H](CO)C(=O)N[C@@H](CO)C(=O)NCC(=O)O)C(C)C [Compound 70] | – | – | 56% (3 nmol/kg) | ≥ 15 | ≥ 30 |
| CC[C@H](C)[C@H](NC(=O)[C@H](Cc1ccccc1)NC(=O)[C@@H](NC(=O)CNC(=O)[C@H](CCC(=O)O)NC(=O)C(C)(C)NC(=O)[C@H](Cc1ccc(O)cc1)NC)[C@@H](C)O)C(=O)N[C@@H](CO)C(=O)N[C@@H](CC(=O)O)C(=O)N[C@@H](Cc1ccc(O)cc1)C(=O)N[C@@H](CO)C(=O)N[C@H](C(=O)NC(C)(C)C(=O)N[C@@H](CCCCNC(=O)CNC(=O)CNC(=O)CNC(=O)CNC(=O)CNC(=O)CCCCCCCCCCCCCCCCC(=O)O)C(=O)N[C@@H](CC(=O)O)C(=O)N[C@@H](CCCNC(=N)N)C(=O)NC(C)(C)C(=O)N[C@@H](C)C(=O)N[C@@H](CCC(N)=O)C(=O)NC(C)(C)C(=O)N[C@@H](CC(N)=O)C(=O)N[C@@H](Cc1ccccc1)C(=O)N[C@H](C(=O)N[C@@H](CC(N)=O)C(=O)N[C@@H](Cc1c[nH]c2ccccc12)C(=O)N[C@@H](CC(C)C)C(=O)N[C@@H](CC(C)C)C(=O)N[C@@H](C)C(=O)N[C@@H](CCC(N)=O)C(=O)N[C@@H](CO)C(=O)N1CCC[C@H]1C(=O)N[C@@H](CO)C(=O)N[C@@H](CO)C(=O)NCC(=O)N[C@@H](C)C(=O)N1CCC[C@H]1C(=O)N1CCC[C@H]1C(=O)N1CCC[C@H]1C(=O)N[C@@H](CO)C(=O)O)C(C)C)[C@@H](C)CC [Compound 96] | ≥ 60 | ≥ 15 | 80% (3 nmol/kg) | – | – |
| CC[C@H](C)[C@H](NC(=O)[C@H](CO)NC(=O)[C@H](Cc1ccc(O)cc1)NC(=O)[C@H](CC(=O)O)NC(=O)[C@H](CO)NC(=O)[C@@H](NC(=O)[C@H](Cc1ccccc1)NC(=O)[C@@H](NC(=O)CNC(=O)[C@H](CCC(=O)O)NC(=O)C(C)(C)NC(=O)[C@H](Cc1ccc(O)cc1)NC)[C@@H](C)O)[C@@H](C)CC)C(=O)N[C@@H](C)C(=O)N[C@@H](CCCCNC(=O)CNC(=O)CNC(=O)CNC(=O)CNC(=O)CNC(=O)CCCCCCCCCCCCCCCCCCC(=O)O)C(=O)N[C@@H](CC(=O)O)C(=O)N[C@@H](CCCNC(=N)N)C(=O)NC(C)(C)C(=O)N[C@@H](C)C(=O)N[C@@H](CCC(N)=O)C(=O)NC(C)(C)C(=O)N[C@@H](CC(=O)O)C(=O)N[C@@H](Cc1ccccc1)C(=O)N[C@H](C(=O)N[C@@H](CC(N)=O)C(=O)N[C@@H](Cc1c[nH]c2ccccc12)C(=O)N[C@@H](CC(C)C)C(=O)N[C@@H](CC(C)C)C(=O)N[C@@H](C)C(=O)N[C@@H](CCC(N)=O)C(=O)N[C@@H](CO)C(=O)N1CCC[C@H]1C(=O)NCC(=O)O)C(C)C [Compound 111] | – | – | 44% (3 nmol/kg) | ≥ 15 | ≥ 30 |

— US20230143604A1, “QW DOSING OF GIP RECEPTOR AGONIST PEPTIDE COMPOUNDS AND USES THEREOF” (TAKEDA PHARMACEUTICAL COMPANY LIMITED, priority 2020, published 2023)
